Drawing on patent US20240247015A1, “PHOSPHORUS DERIVATIVES AS NOVEL SOS1 INHIBITORS” (BAYER AKTIENGESELLSCHAFT, priority 2021, published 2024), this text covers IC50 for 25 molecules.

The target in this experiment is interaction of human SOS1 (SOS1) with human K-RasG12C (Homo sapiens (Human), UniProt Q07889). Kind of experiment: Biochemical assay: hK-RasG12C interaction assay with hSOS1 (HTRF). Conditions: GST-hK-RasG12C with His-hSOS1, 60 min incubation at 20° C., mean, read-out: K-RasG12C - SOS interaction assay IC50 (mean). Format: binding. The protocol: Biochemical Assay: hK-RasG12C Interaction Assay with hSOS1 This assay quantifies the equilibrium interaction of human SOS1 (SOS1) with human K-Ras^G12^C (K-RasG12C). Detection of the interaction is achieved by measuring homogenous time-resolved fluorescence resonance energy transfer (HTRF) from antiGST-Europium (FRET donor) bound to GST-K-RasG12C to anti-6His-XL665 bound to His-tagged hSOS1 (FRET-acceptor). The assay buffer containes 5 mM HEPES pH 7.4 (Applichem), 150 mM NaCl (Sigma), […] (Promega), 1 mM DTT (Thermofisher), 0.05% BSA Fraction V, pH 7.0, (ICN Biomedicals), 0.0025% (v/v) Igepal (Sigma) and 100 mM KF (FLUKA). The expression and purification of N-terminally GST-tagged human K-RasG12C (termed GST-hK-RasG12C) and N-terminally His-tagged human SOS1 (termed His10-hSOS1) is described in WO 2019/201848, page 220 line 12-34 and page 222, line 13-25 (expression) and page 222, line 26 to page 223, line 17 (purification). Concentrations of protein batches used are optimized to be within the linear range of the HTRF signal. A Ras working solution is prepared in assay buffer containing typically 10 nM GST-hK-RasG12C and 2 nM antiGST-Eu(K) (Cisbio, France). A SOS1 working solution is prepared in assay buffer containing typically 20 nM His-hSOS1 and 10 nM anti-6His-XL665 (Cisbio, France). An inhibitor control solution is prepared in assay buffer containing nM anti-6His-XL665 without SOS1. Fifty nl of a 100-fold concentrated solution of the test compound in DMSO are transferred into a black microtiter test plate (384 or 1536, Greiner Bio-One, Germany). For this, either a Hummingbird liquid handler (Digilab, MA, USA) or an Echo acoustic system (Labcyte, CA, USA) is used. All steps of the assay are performed at 20° C. A volume of 2.5 μl of the Ras working solution is added to all wells of the test plate using a Multidrop dispenser (Thermo Labsystems). After 2 min preincubation, 2.5 μl of the SOS1 working solution are added to all wells except for those wells at the side of the test plate that are subsequently filled with 2.5 μl of the inhibitor control solution. After 60 min incubation the fluorescence is measured with a Pherastar (BMG, Germany) using the HTRF module (excitation 337 nm, emission 1: 620 nm, emission 2: 665 nm). The ratiometric data (emission 2 divided by emission 1) are normalized using the controls (DMSO=0% inhibition, inhibition control wells with inhibitor control solution=100% inhibition). Compounds are tested in duplicates at up to 11 concentrations (for 20 μM, 5,7 μM, 1,6 μM, 0.47 μM, 0.13 μM, 38 nM, 11 nM, 3.1 nM, 0.89 nM, 0.25 nM and 0.073 nM). IC50 values are calculated by 4-Parameter fitting using a commercial software package (Genedata Screener, Switzerland).
interaction of human SOS1 (SOS1) with human K-RasG12C, sequence (Q07889 564-1049 limits assumed): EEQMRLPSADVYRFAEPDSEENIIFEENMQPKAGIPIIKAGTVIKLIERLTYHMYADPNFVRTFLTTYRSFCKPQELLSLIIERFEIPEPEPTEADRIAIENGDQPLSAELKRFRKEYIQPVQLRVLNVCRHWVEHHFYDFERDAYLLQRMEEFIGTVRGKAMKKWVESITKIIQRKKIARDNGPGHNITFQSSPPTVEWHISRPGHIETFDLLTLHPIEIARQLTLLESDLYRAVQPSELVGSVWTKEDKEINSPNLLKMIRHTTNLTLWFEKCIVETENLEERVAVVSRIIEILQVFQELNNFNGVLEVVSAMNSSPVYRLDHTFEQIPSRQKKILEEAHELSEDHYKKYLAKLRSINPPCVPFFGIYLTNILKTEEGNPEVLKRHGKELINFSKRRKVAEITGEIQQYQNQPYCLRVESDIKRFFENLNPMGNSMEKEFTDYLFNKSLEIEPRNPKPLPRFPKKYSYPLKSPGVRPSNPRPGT
As for `Cc1nc(N[C@H](C)c2cccc(C(F)(F)C(C)O)c2F)c2cc(P(C)(=O)C(C)C)ncc2n1` (single isomer, unassigned) [Example 83, (2R*)-1,1-difluoro-1-{2-fluoro-3-[(1R)-1-({2-methyl-6-[methyl(propan-2-yl)phosphoryl]pyrido[3,4-d]pyrimidin-4-yl}amino)ethyl]phenyl}propan-2-ol], the half-inhibitory concentration (IC50) was 31 nM. Consider `Cc1nc(N[C@H](C)c2cccc(C(F)(F)C(C)O)c2F)c2cc(P(C)(=O)C(C)C)ncc2n1` (single isomer, unassigned) [Example 84, (2R*)-1,1-difluoro-1-{2-fluoro-3-[(1R)-1-({2-methyl-6-[methyl(propan-2-yl)phosphoryl]pyrido[3,4-d]pyrimidin-4-yl}amino)ethyl]phenyl}propan-2-ol], for which the IC50 was found to be 24.1 nM. The same measure for `Cc1nc(N[C@H](C)c2cccc(C(F)(F)C(O)C(C)C)c2F)c2cc(P(C)(C)=O)ncc2n1` (single isomer, unassigned) [Example 87, (2R*)-1-{3-[(1R)-1-{[6-(dimethylphosphoryl)-2-methylpyrido[3,4-d]pyrimidin-4-yl]amino}ethyl]-2-fluorophenyl}-1,1-difluoro-3-methylbutan-2-ol]: 2.86 nM; for `CCC(O)C(F)(F)c1cccc([C@@H](C)Nc2nc(C)nc3cnc(P(C)(C)=O)cc23)c1F` (single isomer, unassigned) [Example 89, (2R*)-1-{3-[(1R)-1-{[6-(dimethylphosphoryl)-2-methylpyrido[3,4-d]pyrimidin-4-yl]amino}ethyl]-2-fluorophenyl}-1,1-difluorobutan-2-ol]: 6.06 nM.

On to `Cc1nc(N[C@H](C)c2cccc(C(F)(F)C(C)O)c2F)c2cc(P3(=O)CCCC3)ncc2n1` (single isomer, unassigned) [Example 111, 1-(4-{[(1R)-1-{3-[(2R*)-1,1-difluoro-2-hydroxypropyl]-2-fluorophenyl}ethyl]amino}-2-methylpyrido[3,4-d]pyrimidin-6-yl)-1lambda^5-phospholan-1-one], for which the half-maximal inhibitory concentration (IC50) came out at 21.5 nM. As to `Cc1nc(N[C@H](C)c2cccc(C(F)(F)C(C)O)c2F)c2cc(P3(=O)CCCC3)ncc2n1` (single isomer, unassigned) [Example 112, 1-(4-{[(1R)-1-{3-[(2R*)-1,1-difluoro-2-hydroxypropyl]-2-fluorophenyl}ethyl]amino}-2-methylpyrido[3,4-d]pyrimidin-6-yl)-1lambda^5-phospholan-1-one], the IC50 was 11.2 nM. Regarding `Cc1nc(N[C@H](C)c2cccc(C(F)F)c2F)c2cc(P(C)(=O)C(C)C)ncc2n1` (single isomer, unassigned) [Example 115], the IC50 is 80.3 nM. On to `Cc1nc(N[C@H](C)c2cccc(C(F)F)c2F)c2cc(P(C)(=O)C(C)C)ncc2n1` (single isomer, unassigned) [Example 116], for which the IC50 was determined as 57.6 nM. For the molecule `CCP(C)(=O)c1cc2c(N[C@H](C)c3cccc(C(F)F)c3F)nc(C)nc2cn1` (single isomer, unassigned) [Example 118], the half-inhibitory concentration (IC50) was 56.5 nM. The same measure for `CCP(C)(=O)c1cc2c(N[C@H](C)c3cccc(C(F)F)c3F)nc(C)nc2cn1` (single isomer, unassigned) [Example 119]: 42.9 nM. For the molecule `CCP(C)(=O)c1cc2c(N[C@H](C)c3cccc(C(F)(F)CO)c3F)nc(C)nc2cn1` (single isomer, unassigned) [Example 131], the half-maximal inhibitory concentration (IC50) was 11.5 nM. Turning to `CCP(C)(=O)c1cc2c(N[C@H](C)c3cccc(C(F)(F)CO)c3F)nc(C)nc2cn1` (single isomer, unassigned) [Example 132], the concentration for half-maximal inhibition (IC50) is 11.7 nM. For the molecule `Cc1nc(N[C@H](C)c2cccc(C(F)(F)CO)c2F)c2cc(P(C)(=O)C(C)C)ncc2n1` (single isomer, unassigned) [Example 134], the 50% inhibitory concentration (IC50) amounted to 25.2 nM. For `Cc1nc(N[C@H](C)c2cccc(C(F)(F)CO)c2F)c2cc(P(C)(=O)C(C)C)ncc2n1` (single isomer, unassigned) [Example 135], the 50% inhibitory concentration (IC50) is 17 nM. As to `Cc1nc(N[C@H](C)c2cccc(C(F)(F)C(C)O)c2F)c2cc(P(C)(C)=O)ncc2n1` (stereo in doubt) [Example 86, (2R*)-1-{3-[(1R)-1-{[6-(dimethylphosphoryl)-2-methylpyrido[3,4-d]pyrimidin-4-yl]amino}ethyl]-2-fluorophenyl}-1,1-difluoropropan-2-ol], the IC50 was determined as 36.6 nM.

On to `CCP(=O)(CC)c1cc2c(N[C@H](C)c3cccc(C(F)(F)C(C)O)c3F)nc(C)nc2cn1` (stereo in doubt) [Example 90, (2R*)-1-{3-[(1R)-1-{[6-(diethylphosphoryl)-2-methylpyrido[3,4-d]pyrimidin-4-yl]amino}ethyl]-2-fluorophenyl}-1,1-difluoropropan-2-ol], for which the half-inhibitory concentration (IC50) was determined as 26.6 nM.

Consider `Cc1nc(N[C@H](C)c2cccc(C(F)(F)C(O)C(C)(C)C)c2F)c2cc(P(C)(C)=O)ncc2n1` (stereo in doubt) [Example 136, (2R*)-1-{3-[(1R)-1-{[6-(dimethylphosphoryl)-2-methylpyrido[3,4-d]pyrimidin-4-yl]amino}ethyl]-2-fluorophenyl}-1,1-difluoro-3,3-dimethylbutan-2-ol], for which the IC50 amounted to 38.9 nM. With `Cc1nc(N[C@H](C)c2cccc(C(F)(F)F)c2C)c2cc(P(C)(C)=O)ncc2n1` [Example 1, 6-(dimethylphosphoryl)-2-methyl-N-{(1R)-1-[2-methyl-3-(trifluoromethyl)phenyl]ethyl}pyrido[3,4-d]pyrimidin-4-amine], the IC50 amounted to 20.6 nM. Consider `Cc1nc(N[C@H](C)c2cccc(C(F)F)c2F)c2cc(P(C)(C)=O)ncc2n1` [Example 2, N-{(1R)-1-[3-(difluoromethyl)-2-fluorophenyl]ethyl}-6-(dimethylphosphoryl)-2-methylpyrido[3,4-d]pyrimidin-4-amine], for which the concentration for half-maximal inhibition (IC50) was determined as 50.8 nM. For `Cc1nc(N[C@H](C)c2cccc(C(F)(F)C(C)(C)O)c2F)c2cc(P(C)(C)=O)ncc2n1` [Example 3, 1-{3-[(1R)-1-{[6-(dimethylphosphoryl)-2-methylpyrido[3,4-d]pyrimidin-4-yl]amino}ethyl]-2-fluorophenyl}-1,1-difluoro-2-methylpropan-2-ol], the IC50 is 19.1 nM. For `Cc1nc(N[C@H](C)c2cccc(C(F)(F)C(C)(C)O)c2F)c2cc(P3(=O)CCCC3)ncc2n1` [Example 4, 1-[4-({(1R)-1-[3-(1,1-difluoro-2-hydroxy-2-methylpropyl)-2-fluorophenyl]ethyl}amino)-2-methylpyrido[3,4-d]pyrimidin-6-yl]-1lambda^5-phospholan-1-one], the IC50 worked out at 12.8 nM. In the case of `Cc1nc(N[C@H](C)c2cccc(C(F)(F)F)c2C)c2cc(P3(=O)CCN(Cc4ccccc4)CC3)ncc2n1` [Example 5, 1-benzyl-4-[2-methyl-4-({(1R)-1-[2-methyl-3-(trifluoromethyl)phenyl]ethyl}amino)pyrido[3,4-d]pyrimidin-6-yl]-1,4lambda^5-azaphosphinan-4-one], the IC50 was found to be 261 nM. On to `CC(=O)N1CCP(=O)(c2cc3c(N[C@H](C)c4cccc(C(F)(F)F)c4C)nc(C)nc3cn2)CC1` [Example 7, 1-acetyl-4-[2-methyl-4-({(1R)-1-[2-methyl-3-(trifluoromethyl)phenyl]ethyl}amino)pyrido[3,4-d]pyrimidin-6-yl]-1,4lambda^5-azaphosphinan-4-one], for which the IC50 turned out to be 6.24 nM.

With `Cc1nc(N[C@H](C)c2cccc(C(F)F)c2F)c2cc(P3(=O)CCN(Cc4ccccc4)CC3)ncc2n1` [Example 8, 1-benzyl-4-[4-({(1R)-1-[3-(difluoromethyl)-2-fluorophenyl]ethyl}amino)-2-methylpyrido[3,4-d]pyrimidin-6-yl]-1,4lambda^5-azaphosphinan-4-one], the IC50 was 94 nM. For the molecule `Cc1nc(N[C@H](C)c2cccc(C(F)F)c2F)c2cc(P3(=O)CCNCC3)ncc2n1` [Example 9, 4-[4-({(1R)-1-[3-(difluoromethyl)-2-fluorophenyl]ethyl}amino)-2-methylpyrido[3,4-d]pyrimidin-6-yl]-1,4lambda^5-azaphosphinan-4-one], the 50% inhibitory concentration (IC50) amounted to 22.3 nM.
